From ChEMBL document CHEMBL5385865, “Discovery and optimization of 2-(trifluoromethyl)benzimidazole derivatives as novel ferroptosis inducers in vitro and in vivo” (Eur J Med Chem, 2023) come the findings set out here.

One data set has as its system MDA-MB-231. In words: Lethality in human MDA-MB-231 cells assessed as inhibition of cell viability incubated for 24 hrs by MTT assay. It counts as functional, cell-based. To be noted: MDA-MB-231, 24 h. (Formazan colour is commonly taken as a measure of viable cells.)
Data set [1] relates to 786-0. In words: Lethality in human 786-0 cells assessed as decrease in cell viability at 10 uM incubated for 48 hrs in presence of Fer-1 by MTT assay. It counts as functional, cell-based.
Data set [2] concerns HeLa. In words: Lethality in human HeLa cells assessed as decrease in cell viability at 10 uM incubated for 48 hrs by MTT assay. It counts as functional, cell-based.
Data set [3] relates to 786-0. Nature of the data set: Lethality in human 786-0 cells assessed as inhibition of cell viability incubated for 24 hrs by MTT assay. It is filed as functional, cell-based. To be noted: 786-0, 24 h.
In data set [4] the test system is HT-1080. Nature of the data set: Induction of ferroptosis in human HT-1080 cells assessed as cell death at 10 uM incubated for 24 hrs in presence of Z-VAD-FMK by MTT assay. It is filed as functional, cell-based.
Data set [5] has as its system HT-1080. Nature of the data set: Induction of ferroptosis in human HT-1080 cells assessed as increase in lipid ROS accumulation at 5 uM incubated for 10 hrs in presence of Fer-1 by BODIPY-C11 probe based confocal laser scanning microscopy. It is filed as functional, cell-based.
A short description of data set [6]: Toxicity in BALB/c nude mouse xenografted with human HepG2 cells assessed as effect on serum CK level at 15 to 30 mg/kg, ip administered every other day for 21 days. It is filed as organism-based. Particulars: in vivo, 504 h, dose 15-30 mg/kg, time 21 day. On the technique in general: In xenograft studies the graft and the host belong to different species.
The subject of data set [7] is HT-1080. Nature of the data set: Induction of ferroptosis in human HT-1080 cells overexpressing SLC7A11 assessed as increase in lipid peroxidation by BODIPY-C11 probe based confocal laser scanning microscopy. It is filed as functional, cell-based.
Data set [8] is described as follows: Toxicity in BALB/c nude mouse xenografted with human HepG2 cells assessed as histological change in heart at 15 to 30 mg/kg, ip administered every other day for 21 days by H and E staining based analysis. It counts as organism-based. Particulars: in vivo, 504 h, dose 15-30 mg/kg, time 21 day.
Data set [9] has as its system HT-1080. Nature of the data set: Induction of ferroptosis in human HT-1080 cells assessed as increase in SLC7A11 mRNA level incubated for 18 hrs by qPCR analysis. It counts as functional, cell-based. Particulars: dose 0.5-5 µM. (In general: In qPCR the cycle at which signal appears reflects the starting amount.)
The subject of another data set is DU-145. In words: Lethality in human DU-145 cells assessed as decrease in cell viability at 10 uM incubated for 48 hrs by MTT assay. It is filed as functional, cell-based.
A short description of data set [10]: Toxicity in BALB/c nude mouse xenografted with human HepG2 cells assessed as effect on serum AST level at 15 to 30 mg/kg, ip administered every other day for 21 days. Particulars: in vivo, 504 h, dose 15-30 mg/kg, time 21 day. It is filed as organism-based.
Data set [11] relates to HT-1080. Nature of the data set: Effect on GPX4 mRNA level in human HT-1080 cells at 0.5 to 5 uM incubated for 18 hrs by qPCR analysis. To be noted: dose 0.5-5 µM. It counts as functional, cell-based.
In data set [12] the test system is HeLa. In words: Lethality in human HeLa cells assessed as decrease in cell viability at 10 uM incubated for 48 hrs in presence of Fer-1 by MTT assay. It counts as functional, cell-based.

Active and inactive are the calls of the source. The rule behind the calls is not given here.

`CN(C)S(=O)(=O)c1ccc(N2CCC(Cn3c(C(F)(F)F)nc4ccccc43)CC2)cc1`: the IC50 in the data set on MDA-MB-231 was 4.34 µM; with 786-0 [3] it was 0.7 µM. Moreover, the outcome with 786-0 [1], in the data set with HT-1080 [5], in the data set with HT-1080 [7], in the data set with HT-1080 [11] and with HeLa [12] was inactive. Also, the result with HeLa [2], in the data set with HT-1080 [4] and in the data set on DU-145 was Active. The Activity result in data set [6] is “Non-Toxic”; in data set [8], “Non-Toxic”; with HT-1080 [9], “Dose-Dependent Effect”; in [10], “Non-Toxic”.

What is called IC50 is the concentration needed to halve the response being measured.
